Like-named read-outs stand apart in the source and are kept apart here.
Experiments:
[1] = Determination of cytotoxicity (MTT) in HepG2.2.15 cells; conditions: human
Hepatitis B Virus (HBV) = experiment: Inhibition of hepatitis B virus replication in HepG2.2.15 cell culture, quantitative PCR; format: cell-based; conditions: read-out: EC50(μM) in HBV
HBV = format: in vivo, HBV transgenic mice (FVB strain); conditions: effect = blood does not contain HBV DNA
HepG2.2.15 = experiment: Determination of cytotoxicity (MTT) in HepG2.2.15 cells; conditions: read-out: CC50(μM) in HepG2.2.15; MTT, 10th day from treatment with drug
[2] = Hepatitis B virus, 240 h, HepG2.2.15 culture medium, 10 days after treatment with drug, PCR of HBV DNA
[3] = subcutaneous, 10 mg/kg/day for 9 days

| Compound | CC50 at 10 days [1] | EC50 (Hepatitis B Virus (HBV); [2]) | other results |
| --- | --- | --- | --- |
| Nc1ncnc2c1ncn2CC1(OCP(=O)(O)O)CC1 [Compound 1, ({1-[(6-amino-9H-purin-9-yl)methyl]cyclopropyl}oxy)methylphosphonic acid] | > 1000 µM | > 1 µM | – |
| CC(C)(C)C(=O)OCOP(=O)(COC1(Cn2cnc3c(N)ncnc32)CC1)OCOC(=O)C(C)(C)C [Compound 2, 3-[({1-[(6-amino-9H-purin-9-yl)methyl]cyclopropyl}oxy)methyl]-8,8-dimethyl-3,7-dioxo-2,46-trioxa-3 ^5-phosphanon-1-yl pivalate] | > 1000 µM | > 0.1 µM | – |
| Nc1nc(Cl)c2ncn(CC3(OCP(=O)(O)O)CC3)c2n1 [Compound 3, ({1-[(2-amino-6-chloro-9H-purin-9-yl)methyl]cyclopropyl}oxy)methylphosphonic acid] | > 1000 µM | > 0.5 µM | – |
| Nc1nc(O)c2ncn(CC3(OCP(=O)(O)O)CC3)c2n1 [Compound 5, ({1-[(2-amino-6-hydroxy-9H-purin-9-yl)methyl]cyclopropyl}oxy)methyl phosphonic acid] | > 1000 µM | > 0.1 µM | – |
| Nc1ncc2ncn(CC3(OCP(=O)(O)O)CC3)c2n1 [Compound 9, ({1-[(2-amino-9H-purin-9-yl)methyl]cyclopropyl}oxy)methylphosphonic acid] | > 1000 µM | > 0.3 µM | – |
| CC(C)(C)C(=O)OCOP(=O)(COC1(Cn2cnc3cnc(N)nc32)CC1)OCOC(=O)C(C)(C)C [Compound 10, 3-[({1-[(2-amino-9H-purin-9-yl)methyl]cyclopropyl}oxy)methyl]-8,8-dimethyl-3,7-dioxo-2,4,6-trioxa-3 ^5-phosphanon-1-yl pivalate] | > 1000 µM | – | Result: number of mice showing pharmacological effect/number of total mice (HBV; oral, 0.4 mg/kg/day for 9 days): 5/6; Result: number of mice showing pharmacological effect/number of total mice (HBV; oral, 2 mg/kg/day for 9 days): 4/4; EC50 (Hepatitis B Virus (HBV); Hepatitis B virus, HepG2.2.15, 240 h): > 0.08 µM |
| Nc1nc(NC2CC2)c2ncn(CC3(OCP(=O)(O)O)CC3)c2n1 [Compound 11, ({1-[(2-amino-6-cyclopropylamino-9H-purin-9-yl)methyl]cyclopropyl}oxy)meth-ylplhosplhonic acid] | > 1000 µM | > 20 µM | – |
| CCNc1nc(N)nc2c1ncn2CC1(OCP(=O)(O)O)CC1 [Compound 13, ({1-[(2-amino-6-ethylamino-9H-purin-9-yl)methyl]cyclopropyl}oxy)methylphosphonic Acid] | > 1000 µM | > 1 µM | – |
| CN(C)c1nc(N)nc2c1ncn2CC1(OCP(=O)(O)O)CC1 [Compound 15, [(1-{[2-amino-6-(dimethylamino)-9H-purin-9-yl]methyl}cyclopropyl)oxy]methyl phosphonic acid] | > 1000 µM | > 0.8 µM | – |
| CC(C)Nc1nc(N)nc2c1ncn2CC1(OCP(=O)(O)O)CC1 [Compound 17, [(1-{[2-amino-6-(isopropylamino)-9H-purin-9-yl]methyl}cyclopropyl)oxy]methyl phosphonic acid] | > 1000 µM | > 0.5 µM | – |
| Nc1nc(N)c2ncn(CC3(OCP(=O)(O)O)CC3)c2n1 [Compound 19, ({1-[(2,6-diamino-9H-purin-9-yl)methyl]cyclopropyl}oxy)methylphosphonic acid] | > 1000 µM | > 0.3 µM | – |
| CCOc1nc(N)nc2c1ncn2CC1(OCP(=O)(O)O)CC1 [Compound 23, ({1-[(2-amino-6-ethoxy-9H-purin-9-yl)methyl]cyclopropyl}oxy)methyl phosphonic acid] | > 1000 µM | > 0.1 µM | Result: number of mice showing pharmacological effect/number of total mice (HBV; [3]): 4/4 |
| Cc1nc(N)nc2c1ncn2CC1(OCP(=O)(O)O)CC1 [Compound 25, ({1-[(2-amino-6-methyl-9H-purin-9-yl)methyl]cyclopropyl}oxy)methyl phosphonic acid] | > 1000 µM | > 5 µM | – |
| Cc1cn(CC2(OCP(=O)(O)O)CC2)c(=O)[nH]c1=O [Compound 31, [(1-{[5-methyl-2,4-dioxo-3,4-dihydro-1(2H)-pyrimnidinyl]methyl}cyclopropyl)oxy]methylphosphonic acid] | > 1000 µM | > 50 µM | – |
| Nc1nc(N2CCOCC2)c2ncn(CC3(OCP(=O)(O)O)CC3)c2n1 [Compound 37, [(1-{[2-amino-6-(4-morpholinyl)-9H-purin-9-yl]methyl}cyclopropyl)oxy]methyl phosphonic acid] | > 1000 µM | > 5 µM | – |
| CN1CCN(c2nc(N)nc3c2ncn3CC2(OCP(=O)(O)O)CC2)CC1 [Compound 41, [(1-{[2-amino-6-(4-methyl-1-piperazinyl)-9H-purin-9-yl]methyl}cyclopropyl)oxy]methylphosphonic Acid] | > 1000 µM | > 1 µM | – |
| Nc1nc(O)c2ncn(CC3(OCP(=O)(OCC(F)(F)F)OCC(F)(F)F)CC3)c2n1 [Compound 45, bis(2,2,2-trifluoroethyl)({1-[(2-amino-6-hydroxy-9H-purin-9-yl)methyl]cyclopropyl}oxy)methylphosphonate] | > 1000 µM | > 0.5 µM | – |
| Nc1nc(Cl)c2ncn(CC3(OCP(=O)(OCC(F)(F)F)OCC(F)(F)F)CC3)c2n1 [Compound 46, bis(2,2,2-trifluoroethyl)({1-[(2-amino-6-chloro-9H-purin-9-yl)methyl]cyclopropyl}oxy)methylphosphonate] | > 1000 µM | > 1 µM | – |
| Cc1ccc(Sc2nc(N)nc3c2ncn3CC2(OCP(=O)(OCC(F)(F)F)OCC(F)(F)F)CC2)cc1 [Compound 62, bis(2,2,2-trifluoroethyl){[1-({2-amino-6-[(4-methylphenyl)sulfanyl]-9H-purin-9-yl}methyl)cyclopropyl]oxy}methylphosphonate] | > 1000 µM | > 0.5 µM | – |
| Cc1ccc(Sc2nc(N)nc3c2ncn3CC2(OCP(=O)(O)O)CC2)cc1 [Compound 66, {[1-({2-amino-6-[(4-methylphenyl)sulfanyl]-9H-purin-9-yl}methyl)cyclopropyl]oxy}methylphosphonic acid] | > 1000 µM | > 0.1 µM | Result: number of mice showing pharmacological effect/number of total mice (HBV; [3]): 4/4 |
| CC(C)(C)OC(=O)OCOP(=O)(COC1(Cn2cnc3cnc(N)nc32)CC1)OCOC(=O)OC(C)(C)C [Compound 69, bis{[(t-butoxycarbonyl)oxy]methyl}({1-[(2-amino-9H-purin-9-yl)methyl]cyclopropyl}oxy)methylphosphonate] | > 1000 µM | > 1 µM | – |
| CC1CC1(Cn1cnc2c(O)nc(N)nc21)OCP(=O)(O)O (stereo not drawn) [Compound 97, ({1-[(2-amino-6-hydroxy-9H-purin-9-yl)methyl]-2-methylcyclopropyl}oxy)methylphosphonic acid] | > 1000 µM | > 0.05 µM | Result: number of mice showing pharmacological effect/number of total mice (HBV; [3]): 4/4 |
| CC1CC1(Cn1cnc2cnc(N)nc21)OCP(=O)(O)O (stereo not drawn) [Compound 98, ({1-[(2-amino-9H-purin-9-yl)methyl]-2-methylcyclopropyl}oxy)methylphosphonic acid] | > 1000 µM | > 1 µM | Result: number of mice showing pharmacological effect/number of total mice (HBV; [3]): 4/4 |
| Nc1ncnc2c1ncn2CCOCP(=O)(O)O [PMEA, reference compound] | – | – | CC50 (HepG2.2.15): > 500 µM; EC50 (Hepatitis B Virus (HBV); HepG2.2.15 culture medium, 10 days after treatment with drug, PCR of HBV DNA): 5 µM |
